# Tested on: G. pallida
# Experiment: Test A: control of G. pallida by oxamyl on potted potato plants
# Type: in vivo, Globodera pallida
# Settings: serial small doses at 4-day, 7-day or 14-day intervals over the hatching period vs equivalent dose (3.5, 4.5 or 5.5 kg ai/ha) in one application at planting; 70 days; initial 10 or 50 eggs/g of soil; potato in pots
# Source text: G. pallida is the more pernicious pest of potatoes. Studies have been conducted with Composition A comprising oxamyl as described above.
# The test units consisted of large diameter pots each containing one potato plant, planted in soil amended with eggs of G. pallida at either 24 cysts per pot (estimated to be about 10 eggs/g of soil) or 120 cysts per pot (estimated to be about 50 eggs/g of soil). These pest burdens represent a level of infestation that would require treatment in order to prevent crop damage and potential multiplication of the pest (10 eggs/g of soil) and substantial yield loss (50 eggs/g of soil).
# Composition A was introduced into the test units diluted in a constant volume of water. […] The dose at each application was applied in the same volume of water and in equal incremental quantities. […] The number of cysts attached to the roots per gram of root mass (washed free of soil) was determined at 70 days (10 weeks) after commencement of the trial. […]
structure (smiles),measurement,value
"CNC(=O)ON=C(SC)C(=O)N(C)C [oxamyl, N,N-dimethyl-2-methylcarbamoyloxyimino-2-(methylthio)acetamide]",control of cyst production by G. pallida (number of cysts attached to the roots per gram of root mass),superior control
